ChEMBL document CHEMBL1201862, “PubChem BioAssay data set” (2004)
The source made the active and inactive calls.

Legend:
[1] = microbe, parasite or virus in culture; type: functional; details: Mycobacterium tuberculosis
[2] = Counterscreen for AddAB inhibitors: absorbance-based bacterial cell-based high throughput dose response assay for inhibitors of bacterial viability. [Related pubchem assays (depositor defined):AID435030, AID449728, AID449731, AID488942, AID488955, AID488956]; type: functional
Exodeoxyribonuclease V = Exodeoxyribonuclease V (Escherichia coli (strain K12), UniProt P04993+P07648+P08394); assay: RecBCD inhibition via phage-restricted bacterial growth – absorbance, V66 E. coli, mutant T4 phage, counter-screen for AddAB inhibitor project, dose response (AID 492957); type: functional, cell-based, Escherichia coli str. K-12 substr. MG1655
[3] = Luminescence Cell-Based Dose Retest to Confirm Inhibitors of Cancer Stem Cells. [Related pubchem assays (depositor defined):AID2717, AID2721]; type: functional; details: Homo sapiens
[4] = biological target: Voltage-dependent T-type calcium channel subunit alpha-1H (Homo sapiens, UniProt O95180); assay: inhibition of CACNA1H calcium flux – cell-based, SynthLib3 library, HEK293 Cav3.2, fluorescence (AID 493041); type: functional
Voltage-dependent T-type calcium channel subunit alpha-1H, sequence (O95180 whole entry): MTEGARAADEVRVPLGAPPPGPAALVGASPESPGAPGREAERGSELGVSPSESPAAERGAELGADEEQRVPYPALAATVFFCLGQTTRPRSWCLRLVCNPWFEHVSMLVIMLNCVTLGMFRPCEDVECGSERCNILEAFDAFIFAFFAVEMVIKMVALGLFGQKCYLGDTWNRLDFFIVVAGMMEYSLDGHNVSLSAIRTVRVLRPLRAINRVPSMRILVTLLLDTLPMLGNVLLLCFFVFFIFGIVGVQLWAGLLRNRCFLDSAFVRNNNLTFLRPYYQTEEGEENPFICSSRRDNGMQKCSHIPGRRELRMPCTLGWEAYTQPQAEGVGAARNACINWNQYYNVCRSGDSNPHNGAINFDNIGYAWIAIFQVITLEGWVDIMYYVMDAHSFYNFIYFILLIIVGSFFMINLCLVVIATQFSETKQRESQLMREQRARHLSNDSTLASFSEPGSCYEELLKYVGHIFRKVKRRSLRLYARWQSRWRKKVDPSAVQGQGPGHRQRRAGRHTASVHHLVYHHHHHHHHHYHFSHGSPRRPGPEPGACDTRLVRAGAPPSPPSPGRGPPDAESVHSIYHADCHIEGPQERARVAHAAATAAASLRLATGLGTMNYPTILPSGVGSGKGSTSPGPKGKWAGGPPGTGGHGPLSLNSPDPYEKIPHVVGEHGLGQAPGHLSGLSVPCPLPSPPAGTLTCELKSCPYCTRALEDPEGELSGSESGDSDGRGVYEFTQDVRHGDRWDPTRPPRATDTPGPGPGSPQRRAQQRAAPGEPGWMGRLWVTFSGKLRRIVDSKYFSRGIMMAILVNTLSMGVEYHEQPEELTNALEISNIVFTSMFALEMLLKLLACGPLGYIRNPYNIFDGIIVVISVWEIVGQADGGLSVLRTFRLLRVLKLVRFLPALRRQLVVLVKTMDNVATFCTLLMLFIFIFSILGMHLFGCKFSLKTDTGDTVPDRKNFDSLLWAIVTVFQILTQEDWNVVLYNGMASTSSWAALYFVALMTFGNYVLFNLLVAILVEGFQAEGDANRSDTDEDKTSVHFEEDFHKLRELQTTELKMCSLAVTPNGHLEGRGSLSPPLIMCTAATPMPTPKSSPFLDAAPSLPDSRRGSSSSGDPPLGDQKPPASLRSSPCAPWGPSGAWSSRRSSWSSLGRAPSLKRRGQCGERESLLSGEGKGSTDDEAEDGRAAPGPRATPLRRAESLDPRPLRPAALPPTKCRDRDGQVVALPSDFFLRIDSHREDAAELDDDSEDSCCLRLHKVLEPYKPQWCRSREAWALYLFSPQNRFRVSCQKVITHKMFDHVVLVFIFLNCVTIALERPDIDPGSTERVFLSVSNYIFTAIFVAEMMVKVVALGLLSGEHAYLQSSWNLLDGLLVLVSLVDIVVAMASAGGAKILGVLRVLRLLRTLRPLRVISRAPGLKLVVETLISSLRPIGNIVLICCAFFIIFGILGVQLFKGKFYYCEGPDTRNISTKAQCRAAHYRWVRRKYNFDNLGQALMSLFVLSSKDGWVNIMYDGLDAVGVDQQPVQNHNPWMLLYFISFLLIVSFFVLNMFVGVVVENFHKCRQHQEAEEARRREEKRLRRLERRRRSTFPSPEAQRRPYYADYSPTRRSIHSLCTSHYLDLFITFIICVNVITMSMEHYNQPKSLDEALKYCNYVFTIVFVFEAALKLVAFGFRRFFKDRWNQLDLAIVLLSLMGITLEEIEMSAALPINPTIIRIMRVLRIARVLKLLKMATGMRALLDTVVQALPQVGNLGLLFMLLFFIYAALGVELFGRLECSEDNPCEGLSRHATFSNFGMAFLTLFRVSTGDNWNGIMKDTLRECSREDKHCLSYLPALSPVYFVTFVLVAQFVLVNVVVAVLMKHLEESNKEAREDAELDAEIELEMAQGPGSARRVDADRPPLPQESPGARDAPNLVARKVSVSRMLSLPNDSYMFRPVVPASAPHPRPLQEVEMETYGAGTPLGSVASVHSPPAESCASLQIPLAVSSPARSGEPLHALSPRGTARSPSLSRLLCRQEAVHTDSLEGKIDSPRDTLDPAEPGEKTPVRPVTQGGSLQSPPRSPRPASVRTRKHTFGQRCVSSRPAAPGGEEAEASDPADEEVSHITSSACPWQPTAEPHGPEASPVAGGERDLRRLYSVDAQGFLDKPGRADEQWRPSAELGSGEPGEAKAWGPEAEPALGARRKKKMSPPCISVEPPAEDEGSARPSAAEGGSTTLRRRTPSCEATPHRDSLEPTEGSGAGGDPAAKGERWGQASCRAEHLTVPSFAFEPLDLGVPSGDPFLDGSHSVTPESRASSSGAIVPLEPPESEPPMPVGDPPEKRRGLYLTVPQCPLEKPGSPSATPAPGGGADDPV

Mu-type opioid receptor [5] = biological target: T1, Mu-type opioid receptor (Homo sapiens, UniProt P35372); assay: mu opioid receptor blockers – image-based, SAR follow-up (AID 2420); type: functional;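 also: compounds added before stimulation of receptor with agonist DAMGO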
T1 sequence (P35372 whole entry): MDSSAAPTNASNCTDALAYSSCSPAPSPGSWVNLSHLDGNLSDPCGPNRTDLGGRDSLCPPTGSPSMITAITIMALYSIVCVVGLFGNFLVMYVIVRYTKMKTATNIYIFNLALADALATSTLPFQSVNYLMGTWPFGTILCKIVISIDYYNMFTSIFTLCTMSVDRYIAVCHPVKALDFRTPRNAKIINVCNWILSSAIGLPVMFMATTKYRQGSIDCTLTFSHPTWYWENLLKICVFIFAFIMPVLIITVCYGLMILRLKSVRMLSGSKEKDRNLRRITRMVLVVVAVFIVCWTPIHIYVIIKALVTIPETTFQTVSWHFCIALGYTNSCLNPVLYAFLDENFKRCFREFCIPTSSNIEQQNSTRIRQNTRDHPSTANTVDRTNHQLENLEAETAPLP

Mu-type opioid receptor [6] = biological target: T1, Mu-type opioid receptor; assay: mu opioid receptor activators, image-based, SAR follow-up (AID 2352); type: functional
[7] = biological target: T2, Delta-type opioid receptor (Homo sapiens, UniProt P41143); assay: delta opioid receptor blockers – image-based, SAR follow-up (AID 2357); type: functional
T2 sequence (P41143 whole entry): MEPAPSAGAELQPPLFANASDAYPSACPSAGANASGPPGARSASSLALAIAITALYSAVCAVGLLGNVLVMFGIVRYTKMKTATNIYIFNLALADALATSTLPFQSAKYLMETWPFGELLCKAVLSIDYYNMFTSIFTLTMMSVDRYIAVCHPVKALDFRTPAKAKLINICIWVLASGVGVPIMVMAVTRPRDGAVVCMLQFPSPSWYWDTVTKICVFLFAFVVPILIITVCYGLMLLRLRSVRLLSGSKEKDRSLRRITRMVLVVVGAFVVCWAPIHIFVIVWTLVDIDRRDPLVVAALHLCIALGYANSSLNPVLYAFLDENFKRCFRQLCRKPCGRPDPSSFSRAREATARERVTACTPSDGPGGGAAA

[8] = biological target: T3, Kappa-type opioid receptor (Homo sapiens, UniProt P41145); assay: kappa opioid receptor activation potency – imaging, image-based, SAR follow-up (AID 2359); type: functional
T3 sequence (P41145 whole entry): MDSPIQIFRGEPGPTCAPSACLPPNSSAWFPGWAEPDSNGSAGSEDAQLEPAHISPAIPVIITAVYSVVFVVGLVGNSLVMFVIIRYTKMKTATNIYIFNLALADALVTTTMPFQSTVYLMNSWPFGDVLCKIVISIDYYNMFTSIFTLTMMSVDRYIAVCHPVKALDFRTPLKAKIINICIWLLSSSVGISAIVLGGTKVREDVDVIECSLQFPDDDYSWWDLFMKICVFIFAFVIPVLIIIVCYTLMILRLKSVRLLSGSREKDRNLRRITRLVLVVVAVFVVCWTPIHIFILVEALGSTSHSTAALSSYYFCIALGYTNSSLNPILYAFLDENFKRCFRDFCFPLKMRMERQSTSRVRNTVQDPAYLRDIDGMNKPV

[9] = biological target: T3, Kappa-type opioid receptor; assay: kappa opioid receptor blockers, cell-based, luminescence, beta-arrestin, SAR follow-up (AID 2285); type: functional
[10] = biological target: T2, Delta-type opioid receptor; assay: DOR agonists, SAR follow-up, image-based (AID 2370); type: functional
[11] = biological target: T3, Kappa-type opioid receptor; assay: kappa opioid receptor blockers, image-based, SAR follow-up (AID 2348); type: functional
[12] = biological target: Intestinal-type alkaline phosphatase (Mus musculus, UniProt P24822); assay: PubChem AID 488785; type: functional
Intestinal-type alkaline phosphatase (Mus musculus, UniProt P24822), sequence (P24822 whole entry): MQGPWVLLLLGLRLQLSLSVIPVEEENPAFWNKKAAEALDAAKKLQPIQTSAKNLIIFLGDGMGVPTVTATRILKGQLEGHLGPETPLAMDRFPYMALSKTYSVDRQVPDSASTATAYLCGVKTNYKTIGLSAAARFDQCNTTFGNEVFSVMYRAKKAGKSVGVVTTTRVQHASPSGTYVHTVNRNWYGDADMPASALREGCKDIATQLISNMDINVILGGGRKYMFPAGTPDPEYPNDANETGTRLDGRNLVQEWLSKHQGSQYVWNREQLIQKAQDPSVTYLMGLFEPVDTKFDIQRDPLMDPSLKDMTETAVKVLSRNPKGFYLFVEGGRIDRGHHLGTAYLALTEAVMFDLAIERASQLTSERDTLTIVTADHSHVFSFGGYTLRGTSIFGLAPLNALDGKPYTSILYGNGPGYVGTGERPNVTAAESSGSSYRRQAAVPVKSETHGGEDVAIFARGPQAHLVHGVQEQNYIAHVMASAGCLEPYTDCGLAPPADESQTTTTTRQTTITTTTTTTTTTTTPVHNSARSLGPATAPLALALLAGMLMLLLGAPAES

[13] = biological target: T4, Histone-lysine N-methyltransferase NSD2 (Homo sapiens, UniProt O96028); type: biochemical
T4 sequence (O96028 whole entry): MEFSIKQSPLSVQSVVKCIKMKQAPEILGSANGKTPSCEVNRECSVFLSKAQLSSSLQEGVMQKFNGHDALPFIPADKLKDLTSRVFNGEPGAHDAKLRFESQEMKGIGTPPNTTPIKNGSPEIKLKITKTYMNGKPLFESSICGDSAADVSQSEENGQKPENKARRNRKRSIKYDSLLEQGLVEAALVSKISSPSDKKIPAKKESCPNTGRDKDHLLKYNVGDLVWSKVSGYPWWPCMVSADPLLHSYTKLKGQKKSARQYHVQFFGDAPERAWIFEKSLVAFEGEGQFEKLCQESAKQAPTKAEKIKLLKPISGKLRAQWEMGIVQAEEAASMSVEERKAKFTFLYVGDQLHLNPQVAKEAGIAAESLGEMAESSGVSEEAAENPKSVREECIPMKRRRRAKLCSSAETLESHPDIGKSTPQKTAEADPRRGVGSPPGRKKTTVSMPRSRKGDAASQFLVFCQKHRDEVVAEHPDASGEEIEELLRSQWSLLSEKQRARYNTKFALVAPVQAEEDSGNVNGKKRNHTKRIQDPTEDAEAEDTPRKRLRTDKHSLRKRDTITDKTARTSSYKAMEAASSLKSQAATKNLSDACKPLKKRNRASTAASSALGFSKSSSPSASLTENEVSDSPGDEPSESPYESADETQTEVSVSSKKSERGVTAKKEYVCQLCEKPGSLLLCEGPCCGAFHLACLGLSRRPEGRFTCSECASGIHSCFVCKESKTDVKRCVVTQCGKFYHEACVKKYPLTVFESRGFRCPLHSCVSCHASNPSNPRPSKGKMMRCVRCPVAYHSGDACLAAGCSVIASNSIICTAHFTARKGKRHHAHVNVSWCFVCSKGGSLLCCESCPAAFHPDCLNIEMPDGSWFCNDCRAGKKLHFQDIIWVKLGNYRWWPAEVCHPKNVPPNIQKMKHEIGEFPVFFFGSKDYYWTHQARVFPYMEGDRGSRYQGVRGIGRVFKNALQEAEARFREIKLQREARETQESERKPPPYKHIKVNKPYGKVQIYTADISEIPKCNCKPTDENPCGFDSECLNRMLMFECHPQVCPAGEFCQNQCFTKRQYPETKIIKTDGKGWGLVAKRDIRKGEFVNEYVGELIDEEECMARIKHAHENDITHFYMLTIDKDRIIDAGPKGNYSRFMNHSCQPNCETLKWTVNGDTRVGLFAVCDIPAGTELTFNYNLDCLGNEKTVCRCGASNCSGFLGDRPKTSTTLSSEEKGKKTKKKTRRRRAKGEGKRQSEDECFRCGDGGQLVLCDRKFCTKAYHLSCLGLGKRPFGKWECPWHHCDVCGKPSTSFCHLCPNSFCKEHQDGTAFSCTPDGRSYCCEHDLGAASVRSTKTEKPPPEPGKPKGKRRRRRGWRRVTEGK

Caspase-6 = Caspase-6 (Homo sapiens, UniProt P55212); assay: inhibition of CASP6 peptide cleavage – biochemical, VEID-R110 fluorescence, cherry-pick, dose response (AID 720632)
Caspase-6, sequence (P55212 24-179 limits assumed): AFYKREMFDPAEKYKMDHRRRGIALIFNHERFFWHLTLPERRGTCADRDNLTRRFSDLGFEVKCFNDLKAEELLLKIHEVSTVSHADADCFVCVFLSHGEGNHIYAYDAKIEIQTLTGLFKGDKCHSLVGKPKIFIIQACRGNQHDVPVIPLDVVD
Caspase-6, sequence (P55212 194-293 limits assumed): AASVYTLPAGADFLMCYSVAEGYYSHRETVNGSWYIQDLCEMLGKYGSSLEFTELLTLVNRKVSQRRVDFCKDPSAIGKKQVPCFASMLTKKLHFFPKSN

[14] = viability loss in THP-1 monocytes – THP-1 cells, cytotoxicity control for Vif-APOBEC3G degradation inhibitor project, dose response (AID 1117359); type: functional; details: THP-1
Vero = assay: viability of Vero cells under compound – cytotoxicity control for flavivirus capping enzyme inhibitors (AID 588742); type: functional; details: Chlorocebus sabaeus
cells [15] = type: functional, cell-based
[16] = biological target: T5, Trace amine-associated receptor 1 (Homo sapiens, UniProt Q96RJ0); assay: Fluorescence-based cell-based high throughput dose response assay to identify agonists of the human trace amine associated receptor 1 (TAAR1).; type: functional
T5 sequence (Q96RJ0 whole entry): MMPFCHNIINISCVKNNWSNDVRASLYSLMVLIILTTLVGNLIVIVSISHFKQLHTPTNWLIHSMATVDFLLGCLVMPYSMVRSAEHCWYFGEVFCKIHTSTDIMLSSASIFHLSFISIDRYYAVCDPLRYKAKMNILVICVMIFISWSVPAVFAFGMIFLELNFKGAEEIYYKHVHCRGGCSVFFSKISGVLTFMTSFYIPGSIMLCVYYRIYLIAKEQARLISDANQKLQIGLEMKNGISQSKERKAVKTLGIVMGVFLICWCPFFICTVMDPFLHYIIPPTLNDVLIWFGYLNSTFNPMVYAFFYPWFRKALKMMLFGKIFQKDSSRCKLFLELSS

cells [17] = type: functional, cell-based; remark: listed apart in the source
[18] = viability of uninfected HEp-2 cells – cell-based, HTS, cytotoxicity control for RSV inhibitor project, dose response (AID 2410); type: functional; details: human respiratory syncytial virus
[19] = biological target: T6, Alkaline phosphatase, tissue-nonspecific isozyme (Homo sapiens, UniProt P05186); assay: TNAP enzyme inhibition by screening hits, dose response, selectivity assay for mouse IAP inhibitor project, biochemical, human TNAP, uHTS hits (AID 488906); type: functional
T6 sequence (P05186 whole entry): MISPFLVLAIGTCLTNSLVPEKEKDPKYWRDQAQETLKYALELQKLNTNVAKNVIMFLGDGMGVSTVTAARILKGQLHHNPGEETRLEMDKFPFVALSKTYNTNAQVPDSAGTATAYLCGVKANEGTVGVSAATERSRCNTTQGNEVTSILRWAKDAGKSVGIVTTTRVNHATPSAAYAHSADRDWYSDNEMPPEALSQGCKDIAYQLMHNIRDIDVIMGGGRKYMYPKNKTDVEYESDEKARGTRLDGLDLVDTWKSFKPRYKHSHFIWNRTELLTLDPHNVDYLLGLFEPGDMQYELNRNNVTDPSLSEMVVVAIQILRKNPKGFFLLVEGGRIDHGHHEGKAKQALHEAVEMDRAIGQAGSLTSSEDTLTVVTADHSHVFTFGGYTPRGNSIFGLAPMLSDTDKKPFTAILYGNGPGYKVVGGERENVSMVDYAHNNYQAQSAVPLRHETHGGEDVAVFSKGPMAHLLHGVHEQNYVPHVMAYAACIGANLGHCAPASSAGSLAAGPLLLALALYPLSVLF

[20] = biological target: Intestinal-type alkaline phosphatase (Homo sapiens, UniProt P09923); assay: inhibition of human intestinal alkaline phosphatase – biochemical, dose response (AID 488876); type: functional
Intestinal-type alkaline phosphatase (Homo sapiens, UniProt P09923), sequence (P09923 whole entry): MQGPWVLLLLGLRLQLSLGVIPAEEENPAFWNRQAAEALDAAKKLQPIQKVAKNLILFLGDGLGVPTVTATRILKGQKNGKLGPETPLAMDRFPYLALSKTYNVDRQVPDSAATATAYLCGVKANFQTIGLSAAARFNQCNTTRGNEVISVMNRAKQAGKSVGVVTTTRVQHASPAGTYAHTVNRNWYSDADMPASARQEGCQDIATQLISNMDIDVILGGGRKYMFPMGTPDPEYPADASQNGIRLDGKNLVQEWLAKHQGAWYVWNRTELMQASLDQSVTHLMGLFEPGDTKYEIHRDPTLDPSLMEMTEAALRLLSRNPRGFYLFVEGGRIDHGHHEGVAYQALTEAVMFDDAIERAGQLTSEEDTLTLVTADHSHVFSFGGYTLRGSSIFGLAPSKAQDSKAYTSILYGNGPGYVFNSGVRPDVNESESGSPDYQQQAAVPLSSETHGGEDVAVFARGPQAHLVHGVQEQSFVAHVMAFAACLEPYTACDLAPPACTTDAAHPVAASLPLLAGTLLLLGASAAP

[21] = biological target: T5, Trace amine-associated receptor 1; assay: Counterscreen for agonists of the human trace amine associated receptor 1 (hTAAR1): Fluorescence-based cell-based high throughput dose response assay to identify hTAAR1 agonist that also desensitize TAAR1 receptor response.; type: functional
[22] = MIN6 cell viability loss – mouse insulinoma, cytotoxicity control, dose response (AID 2122); type: functional;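 also: confirmatory high-throughput counterscreen run to flag cytotoxic compounds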
Protein Wnt-3a = Protein Wnt-3a (Mus musculus, UniProt P27467); assay: antagonism of Wnt3a pathway luciferase reporter – Wnt-LIGHT cells, luminescence, selectivity assay for Gli-SUFU antagonist project, dose response (AID 651570); type: functional; details: read-out: IC50_Mean;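 also: Wnt-LIGHT reporter cells stimulated with conditioned medium from Wnt3a-producing cells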
[23] = decrease of insulin promoter-GFP reporter – imaging, high-content screening, mouse beta cells (AID 1628); type: functional; details: MIN6
[24] = biological target: Lysine-specific demethylase 4C (Homo sapiens, UniProt Q9H3R0); assay: inhibition of JMJD2C H3K9me3 demethylation – biochemical, DELFIA europium, cherry-picked samples, dose response (AID 488835); type: functional
[25] = biological target: G-protein coupled receptor 55 (Homo sapiens, UniProt Q9Y2T6); assay: blockers of GPR55 signalling, imaged – imaging, image-based, counter-screen for GPR35 antagonist project, SAR follow-up (AID 2397); type: functional

In the case of O=C(CSc1[nH]cnc2ncnc1-2)c1ccc(Cl)cc1, the CC50 [1] is reported as > 40 µM (active), the IC50 [2] is reported as 61.1 µM (inactive) and the IC50 (Exodeoxyribonuclease V) is reported as > 119 µM (inactive). The AC50 [3] was 2.81 µM (active).

In the case of CC(C)Cc1nnc(NC(=O)COc2ccc(F)cc2Cl)o1, the EC50 [4] is reported as 10 µM (active).

In the case of CCC(=NNc1ccnc2cc(Cl)ccc12)c1ccc(O)cc1, the IC50 (Mu-type opioid receptor [5]) is reported as > 32 µM (inactive), the EC50 (Mu-type opioid receptor [6]) is reported as 25.3 µM (inactive) and the IC50 [7] is reported as > 32 µM (inactive). For the same compound, the EC50 [8] was > 32 µM (inactive), the IC50 [9] was 3.54 µM (active) and the EC50 [10] was 30.7 µM (inactive). For the same compound, the IC50 [11] was 3.62 µM (active).

In the case of O=[N+]([O-])c1ccccc1NC(=S)N/N=C/c1ccc(O)c(O)c1, the IC50 [12] is reported as 0.216 µM (active), the AC50 [13] is reported as 1.34 µM (active) and the AC50 (Caspase-6) is reported as 1.56 µM (active). For the same compound, the CC50 [14] was 25.5 µM (active), the CC50 (Vero) was 22.8 µM (active) and the IC50 (cells [15]) was 23.5 µM (inactive). The EC50 [16] was 4.15 µM (active), the EC50 (cells [17]) was > 29.9 µM (inactive) and the CC50 [18] was 11.7 µM (active). For the same compound, the IC50 [19] was 1.53 µM (active), the IC50 [20] was > 100 µM (inactive) and the IC50 [21] was 7.2 µM (active).

In the case of COc1ccc(NS(=O)(=O)c2ccc(NC(C)=O)cc2)cc1OC, the IC50 [22] is reported as 2.22 µM (active), the IC50 (Protein Wnt-3a) is reported as 12 µM (active) and the IC50 [23] is reported as 3.44 µM (active).

In the case of CS(=O)(=O)N(CC(=O)NCc1ccco1)c1ccccc1Cl, the AC50 [24] is reported as 18.4 µM (active).

For Cc1ccc(OCCC(=O)NCCc2ccc(S(N)(=O)=O)cc2)cc1, the IC50 [25] was > 32 µM (inactive).
